For one series, the system named is 4T1.2 cells. Kind of series: MTT cytotoxicity in 4T1.2 cells. The format is cell-based, mouse. The conditions noted are these: 4T1.2, 72 h; for IC50: means±s.e.m. As for the experimental part:
(§1) 4T1.2 or PC3 cells at 2,000 cells/well were seeded in 96-well plates, respectively. […] After 3 days of incubation, 20 μl of 3-(4, 5-dimethylthiazol-2-yl)-2,5-diphenyltetrazoliumbromide (MTT) in DPBS (5 mg ml^−1) was added to each well and cells were further incubated for 2 h. Medium was removed and MTT formazan crystals were solubilized by 100 μl of DMSO per well. Absorbance of each well was measured with a microplate reader at wavelength of 550 nm. Untreated wells were used as controls. Cell viability was calculated as ((ODtreated−ODblank)/(ODcontrol−ODblank) × 100%).

The test system of another series is PC3 cells. Kind of series: MTT cytotoxicity in PC3 cells. It counts as cell-based. The conditions noted are these: Homo sapiens, PC-3, PC3, 72 h, means±s.e.m. On the procedure: as §1

Converted amounts (≈) assume the structure as drawn. Like-named read-outs stand apart in the source and are kept apart here.

The term IC50 denotes the concentration needed to halve the response being measured. In turn, `COc1cccc2c1C(=O)c1c(O)c3c(c(O)c1C2=O)C[C@@](O)(C(=O)CO)C[C@@H]3O[C@H]1C[C@H](N)[C@H](O)[C@H](C)O1` [DOX, doxorubicin] came in with an IC50 in the series on 4T1.2 cells of 0.2686 ± 0.02728 µg/mL (≈ 0.494 µM).

Take `CC(=O)O[C@H]1C(=O)[C@@]2(C)[C@H]([C@H](OC(=O)c3ccccc3)[C@]3(O)C[C@H](OC(=O)[C@H](O)[C@@H](NC(=O)c4ccccc4)c4ccccc4)C(C)=C1C3(C)C)[C@]1(OC(C)=O)CO[C@@H]1C[C@@H]2O` [PTX, Paclitaxel]: the IC50 in the series with PC3 cells was found to be 0.101 ± 0.0112 µg/mL (≈ 0.119 µM); in the series on 4T1.2 cells (Mus musculus, read-out: IC50) it was 0.245 ± 0.0211 µg/mL (≈ 0.286 µM). Also, the “Cytotoxicity (tumour cell growth inhibition)” value with 4T1.2 cells (Fig. 3d) is listed as “inhibited the tumour cell growth in a concentration-dependent manner”.
